{"source": "patent US6576669B2", "about": "(Boehringer Ingelheim Pharma KG, priority 2001, dated 2003)", "system": "muc-5AC RNA", "assay": "Biochemical study: Pseudomonas aeruginosa LPS aerosol-induced muc-5AC RNA in rat trachea (TaqMan real time PCR)", "assay_type": "in vivo", "conditions": "3 mg/kg p.o. 6 hours before LPS aerosol, trachea taken 20 hours after exposure, compared with vehicle pre-treatment", "description": "Two different rat strains, BDE and F344/NHsd, were tested because previous studies had shown strain-related differences in reactivity to lipopolysaccharides.\nAnimals Used: Adult male rats, strain BDE/Han, average weight about […] (range 340 g to 450 g), and adult male F344/NHsd rats, average weight about 250 g (range 240 g to 260g).\nAnimal Maintenance: The rats were housed in air-conditioned rooms, at 21° C.-25° C., relative humidity between 50% and 65%, day-night cycle 12 hours. They were fed before the start of the experiment and received tap water ad lib. 18 hours prior to drug administration, food was withdrawn, but drinking water remained available.\nThe compound of formula (I), namely carbamic acid, [[4-[[3-[[4-[1-(4-hydroxyphenyl)-1-methylethyl]phenoxy]methyl]phenyl]methoxy]phenyl]iminomethyl]ethyl ester, was synthesized as described in the International Patent Application WO 96/02497 and jet milled. For administration to animals, the compound of formula (I) was first dissolved in LABRASOL® and a 7% emulsion was then prepared of this LABRASOL® solution in distilled water (homogenized). […]\nExtraction and Quantitation of RNA: Total RNA was isolated with the RNeasy system (Qiagen, Germany). […] Quantitation of muc-5AC RNA was performed by the TAQMAN® real time PCR system using an ABI Prism 7700 Detector (Perkin Elmer Corporation, California USA). […]"}
{"smiles": "CCOC(=O)/N=C(\\N)c1ccc(OCc2cccc(COc3ccc(C(C)(C)c4ccc(O)cc4)cc3)c2)cc1", "note": "[compound (I)]", "values": [{"measurement": "increase in tracheal epithelial expression of the muc-5AC gene (relative to 18S ribosomal RNA) after Pseudomonas aeruginosa aerosol", "setting": "BDE strain rats, p=0.003", "result": "reduced this increase to less than half the value with only vehicle pre-treatment"}, {"measurement": "increase in tracheal epithelial expression of the muc-5AC gene (relative to 18S ribosomal RNA) after Pseudomonas aeruginosa aerosol", "setting": "F344 strain rats, p=0.010", "result": "reduced this increase to less than half the value with only vehicle pre-treatment"}]}
